Test results taken from US20250109384A1, “A CELLULAR COMPOSITE” (ALCYOMICS LIMITED, priority 2022, published 2025).
“Also recorded” adds a separate entry of the source.

How the values were obtained:
[1] = tested on: Y201 models and OA models; test: Aggrecan / collagen II immunofluorescence (IHC) of models and OA models with coatings or media modification; assay type: cell-based, human
Description: (§1) To improve the overall quality of the model and encourage aggrecan deposition a range of separate coatings were applied to the 3D scaffold. The applied coatings were selected from human collagen type II, human hyaluronan and human aggrecan to empty 3D scaffolds. Specifically, COL-II was solubilised to 1 mg/mL in 0.5M acetic acid. Stock was diluted 1:500 in PBS and 10 uL layered onto each scaffold. Scaffolds were left to air dry overnight at 2-8 degrees. The next day scaffolds there gently washed in PBS and were ready for use. Hyaluronan was reconstituted into a 1% w/v stock in sterile water. 10 uL was added to each scaffold and left to polymerise at 37 degrees for 1 hour. Following this incubation scaffolds were ready to use. Aggrecan was reconstituted in PBS to create a 100ug/mL stock solution. This stock was used neat, with 10 uL added to each scaffold. Scaffolds were incubated at 37 degrees for several hours prior to use.
(§2) An independent modification was also made to the chondrogenic media. This involved the addition of the HAPLN1 link protein (SEQ ID NO: 1). Specifically, HAPLN1 stock solution was added to chondrogenic media at a working concentration of 100 ng/mL. The resulting medium composition (complete) is outlined in Table 1. L-Ascorbic acid-2-phosphate and HAPLN1 link protein have limited shelf life at 4° C. and so are added to aliquots of incomplete CDM (all components of Table 1 with the exception of L-Ascorbic acid-2-phosphate and HAPLN1 link protein) to create complete CDM on day 7. Preparation of HAPLN1 link protein (Cat #2608-HP RnD sytems) is as follows: • Unit concentration: 25 μg • Solvent: PBS • Reconstitution volume: 250 μl • Stock concentration: 100 μg/mL • Working concentration: 100 ng/mL • Use: 1:1000 dilution for working concentration. E.g. 50 μL of stock into 50 mL of media. • HAPLN1 is reportedly stable for 1 month at 4° C.
(§3) The resulting models were stimulated with cytokines using previously established protocols to create OA models. Following cytokine stimulation, the resulting OA models were harvested and analysed for q-PCR, and immunofluorescent (IF). The supernatant was also harvested and analysed using ELISAs and FRET assays. All analyses were conducted in triplicate.

[2] = tested on: Y201 models and OA models; test: ELISA of MMP13 and ADAMTS4 in supernatant of modified models and OA models; assay type: cell-based, human; settings: OA models vs models; for MMP13 concentration in supernatant (ELISA): coating or supplement
Description: as §1, §2, §3

Y201 OA models = test: q-PCR of OA models with coated scaffolds or HAPLN1 modified chondrogenic media; assay type: cell-based, human; settings: OA models (cytokine stimulated); for fold change of MMP13 gene expression: scaffold coating or media supplement
Description: as §1, §2, §3

[3] = at 4° C.; cited from earlier work
[4] = OA models (cytokine stimulated)
[5] = models not stimulated with cytokines

## aggrecan: human aggrecan applied as coating to the 3D scaffold
[1]; [4]
  aggrecan staining: aggrecan was detected
[1]; [5]
  aggrecan staining: did not stain for aggrecan
[2]
  MMP13 concentration in supernatant (ELISA): increased MMP13 levels
Y201 OA models
  fold change of MMP13 gene expression: ~19 fold

## Hyaluronan
[1]; [5]
  aggrecan staining: did not stain positively of aggrecan
[2]; coating
  ADAMTS4 concentration in supernatant (ELISA): increase in ADATS4 levels
[2]
  MMP13 concentration in supernatant (ELISA): decrease in the levels of MMP13
Y201 OA models; coated scaffolds
  gene expression profile vs uncoated OA models: comparable

## Collagen type II: human collagen type II applied as coating to the 3D scaffold
[1]; [5]
  aggrecan staining: did not stain positively of aggrecan
[2]
  MMP13 concentration in supernatant (ELISA): decrease in the levels of MMP13
Y201 OA models; coated scaffolds
  ADAMTS5 gene expression: increase in expression of ADAMTS5

B1: HAPLN1: hyaluronan and proteoglycan link protein 1 (SEQ ID NO: 1), added to chondrogenic media at 100 ng/mL (protein, listed as Homo sapiens)
chain: MKSLLLLVLISICWADHLSDNYTLDHDRAIHIQAENGPHLLVEAEQAKVFSHRGGNVTLPCKFYRDPTAFGSGIHKIRIKWTKLTSDYLKEVDVFVSMGYHKKTYGGYQGRVFLKGGSDSDASLVITDLTLEDYGRYKCEVIEGLEDDTVVVALDLQGVVFPYFPRLGRYNLNFHEAQQACLDQDAVIASFDQLYDAWRGGLDWCNAGWLSDGSVQYPITKPREPCGGQNTVPGVRNYGFWDKDKSRYDVFCFTSNFNGRFYYLIHPTKLTYDEAVQACLNDGAQIAKVGQIFAAWKILGYDRCDAGWLADGSVRYPISRPRRRCSPTEAAVRFVGFPDKKHKLYGVYCFRAYN
[1]; MSCs differentiated to chondrocytes in presence of HAPLN1
  collagen II production (immunofluorescence): does not have a negative effect on collagen II production
[1]; [4]
  aggrecan staining: no staining of aggrecan
[1]; [5]
  aggrecan staining: did stain for aggrecan; also recorded: significant levels of ACAN protein
[2]
  MMP13 concentration in supernatant (ELISA): increased MMP13 levels
[3]
  stability: 1 month
Y201 OA models
  fold change of MMP13 gene expression: ~6 fold
